The subject of one data set is Phaedon cochleariae. Nature of the data set: Phaedon cochleariae spray test. The format is in vivo. The following applies: 100 g/ha, sprayed Chinese cabbage leaf discs, mustard beetle larvae, after 7 days. As for the experimental part: Phaedon cochleariae—Spray Test
(§1) To produce a suitable active compound preparation, 1 part by weight of active compound is dissolved using the stated parts by weight of solvent and made up with water containing an emulsifier concentration of 1000 ppm until the desired concentration is attained. To produce further test concentrations, the formulation is diluted with emulsifier-containing water.
Discs of Chinese cabbage leaves (Brassica pekinensis) are sprayed with an active compound formulation of the desired concentration and, after drying, populated with larvae of the mustard beetle (Phaedon cochleariae).
After 7 days, the efficacy in % is determined. 100% means that all the beetle larvae have been killed; 0% means that no beetle larvae have been killed.

In data set [1] the test system is Myzus persicae. Nature of the data set: Myzus persicae spray test. The format is in vivo. The following applies: foliar, 120 h, sprayed Chinese cabbage leaf discs, all stages of the green peach aphid, after 5 days, read-out: efficacy. The procedure: Myzus persicae—Spray Test [table] To produce a suitable active compound preparation, 1 part by weight of active compound is dissolved using the stated parts by weight of solvent and made up with water containing an emulsifier concentration of 1000 ppm until the desired concentration is attained. To produce further test concentrations, the formulation is diluted with emulsifier-containing water. Discs of Chinese cabbage leaves (Brassica pekinensis) infested by all stages of the green peach aphid (Myzus persicae) are sprayed with an active compound formulation of the desired concentration. After 5 days, the efficacy in % is determined. 100% means that all the aphids have been killed; 0% means that no aphids have been killed.

The test system of a further data set is Spodoptera frugiperda. Nature of the data set: Spodoptera frugiperda spray test. The format is in vivo. The following applies: foliar, 168 h, sprayed maize leaf discs, fall armyworm caterpillars, after 7 days, read-out: efficacy. As for the experimental part: Spodoptera frugiperda—Spray Test [table] To produce a suitable active compound preparation, 1 part by weight of active compound is dissolved using the stated parts by weight of solvent and made up with water containing an emulsifier concentration of 1000 ppm until the desired concentration is attained. To produce further test concentrations, the formulation is diluted with emulsifier-containing water. Leaf discs of maize (Zea mays) are sprayed with an active compound formulation of the desired concentration and, after drying, populated with caterpillars of the fall armyworm (Spodoptera frugiperda). After 7 days, the efficacy in % is determined. 100% means that all the caterpillars have been killed; 0% means that no caterpillar has been killed.

For data set [2], the system named is Myzus persicae. Description: Myzus persicae oral test. The format is in vivo. The following applies: 120 h, mixed population of green peach aphids, after 5 days, read-out: efficacy. As for the experimental part:
Myzus persicae—Oral Test [table] To produce a suitable preparation of active compound, 1 part by weight of active compound is dissolved using the specified parts by weight of solvent and made up with water until the desired concentration is attained. 50 μl of the active ingredient formulation are transferred into microtitre plates and made up to a final volume of 200 μl with 150 μl of IPL41 insect medium (33%+15% sugar). Subsequently, the plates are sealed with parafilm, which a mixed population of green peach aphids (Myzus persicae) within a second microtitre plate is able to puncture and imbibe the solution through. After 5 days, the efficacy in % is determined. 100% means that all the aphids have been killed; 0% means that no aphids have been killed.

A short description of data set [3]: log P by HPLC on reversed-phase column (C18), EEC Directive 79/831 Annex V.A8. The format is physicochemical. As for the experimental part: The log P values were determined according to EEC Directive 79/831 Annex V.A8 by HPLC (high-performance liquid chromatography) on a reversed-phase column (C18) using the following methods: ^[a] […] Calibration was carried out using a homologous series of straight-chain alkan-2-ones (having 3 to 16 carbon atoms) with known log P values. The values between successive alkanones are determined by linear regression.

The next data set has as its system Ctenocephalides felis. Nature of the data set: Ctenocephalides felis oral test. The format is in vivo. The following applies: 48 h, 100 ppm in citrated cattle blood, unfed adult cat fleas, after 2 days, read-out: efficacy (kill in %). As for the experimental part:
Ctenocephalides felis—Oral Test [table] To produce a suitable active compound preparation, 10 mg of active compound are mixed with 0.5 ml of dimethyl sulfoxide. Dilution with citrated cattle blood gives the desired concentration. About 20 unfed adult cat fleas (Ctenocephalides felis) are placed into a chamber which is closed at the top and bottom with gauze. A metal cylinder whose bottom end is closed with parafilm is placed onto the chamber. The cylinder contains the blood/active compound formulation, which can be imbibed by the fleas through the parafilm membrane. After 2 days, the kill in % is determined. 100% means that all of the fleas have been killed; 0% means that none of the fleas have been killed.

In another data set the test system is Boophilus microplus. Description: Boophilus microplus injection test. The format is in vivo. The following applies: 20 μg/animal, injection into engorged adult female cattle ticks, assessed after 7 days by laying of fertile eggs. The procedure: Boophilus microplus—Injection Test [table] To produce a suitable active compound preparation, 10 mg of active compound are mixed with 0.5 ml of solvent and the concentrate is diluted to the desired concentration with solvent. 1 μl of the active compound solution is injected into the abdomen of 5 engorged adult female cattle ticks (Boophilus microplus). The animals are transferred into dishes and kept in a climate-controlled room. Efficacy is assessed after 7 days by laying of fertile eggs. Eggs which are not visibly fertile are stored in a climate-controlled cabinet until the larvae hatch after about 42 days. An efficacy of 100% means that none of the ticks has laid any fertile eggs; 0% means that all the eggs are fertile.

The test system of a further data set is Tetranychus urticae. Nature of the data set: Tetranychus urticae spray test, OP-resistant. The following applies: 20 g/ha, sprayed bean leaf discs, all stages of the greenhouse red spider mite, after 6 days. The format is in vivo. The procedure:
Tetranychus urticae—Spray Test, OP-Resistant
as §1
Discs of bean leaves (Phaseolus vulgaris) infested with all stages of the greenhouse red spider mite (Tetranychus urticae) are sprayed with an active compound formulation of the desired concentration.
After 6 days, the efficacy in % is determined. 100% means that all the spider mites have been killed; 0% means that no spider mites have been killed.

Where [4] appears, read: LC-UV in the acidic range, formic acid in water / acetonitrile, read-out: log P[acidic].
Setting [5] is: LC-UV in the neutral range, ammonium carbonate in water / acetonitrile, read-out: log P[neutral].

Molecules are shown by their SMILES. Like-named read-outs stand apart in the source and are kept apart here.

Consider `CCS(=O)(=O)c1c(-c2nc3cc(C(F)(F)F)cnc3n2C)nc(-n2ccc(C3CC3)n2)n1C` [Example I-9, 2-[2-(3-Cyclopropyl-1H-pyrazol-1-yl)-5-(ethylsulfonyl)-1-methyl-1H-imidazol-4-yl]-3-methyl-6-(trifluoromethyl)-3H-imidazo[4,5-b]pyridine], for which, in the data set with Phaedon cochleariae, the efficacy is 100%. In addition, the pest or weed control at 100 g/ha with Myzus persicae [1] and with Spodoptera frugiperda was 100% in each case. The pest or weed control at 4 ppm in the data set with Myzus persicae [2] is 100%. Besides, the chromatographic logP was 3.46 in data set [3] (setting [4]) and 3.36 in data set [3] (setting [5]). Further, the pest or weed control at 100 ppm in the data set with Ctenocephalides felis turned out to be 90%.
Take `CCS(=O)(=O)c1c(-c2nc3cc(C(F)(F)F)cnc3n2C)nc(-c2cnn(C3CC3)c2)n1C` [Example I-6]: the efficacy is reported as 100% in the data set on Phaedon cochleariae and 95% in the data set on Boophilus microplus. For the same compound, the pest or weed control at 100 g/ha in the data set on Myzus persicae [1] and with Spodoptera frugiperda was 100% throughout. In addition, the pest or weed control at 4 ppm with Myzus persicae [2] worked out at 100%. Also, the pest or weed control at 100 ppm in the data set with Ctenocephalides felis turned out to be 100%.
Take `CCS(=O)(=O)c1c(-c2nc3cc(C(F)(F)F)cnc3n2C)nc(-c2ccc(C3(C#N)CC3)cc2)n1C` [Example I-5, 1-(4-{5-(Ethylsulfonyl)-1-methyl-4-[3-methyl-6-(trifluoromethyl)-3H-imidazo[4,5-b]pyridin-2-yl]-1H-imidazol-2-yl}phenyl)cyclopropanecarbonitrile]: in the data set with Phaedon cochleariae, the efficacy is recorded as 100%. The pest or weed control at 100 g/ha in the data set on Myzus persicae [1] and in the data set on Spodoptera frugiperda was 100% each time. Moreover, the pest or weed control at 4 ppm in the data set with Myzus persicae [2] was 100%. The chromatographic logP was 3.14 in data set [3] (setting [4]) and 3.07 in data set [3] (setting [5]). Further, in the data set with Ctenocephalides felis, the pest or weed control at 100 ppm was 100%.
`CCS(=O)(=O)c1c(-c2nc3cc(C(F)(F)F)cnc3n2C)nc(-c2ccc(C3CC3)nc2)n1C` [Example I-14] registered an efficacy in the data set on Phaedon cochleariae of 100%. In addition, the results for the pest or weed control at 100 g/ha in the data set with Myzus persicae [1] and in the data set with Spodoptera frugiperda were 90% and 100%, respectively. The pest or weed control at 4 ppm with Myzus persicae [2] is 100%. The pest or weed control at 100 ppm in the data set with Ctenocephalides felis is 90%.
In the case of `CCS(=O)(=O)c1c(-c2nc3cc(C(F)(F)F)cnc3n2C)nc(-n2cc(Br)c(C3CC3)n2)n1C` [Example I-10], the efficacy with Phaedon cochleariae came out at 100%; with Boophilus microplus it was 90%; with Tetranychus urticae, 90%. Moreover, the pest or weed control at 100 g/ha in the data set with Myzus persicae [1] is 90%; in the data set on Spodoptera frugiperda it was 100%. The pest or weed control at 4 ppm with Myzus persicae [2] turned out to be 100%. Moreover, the pest or weed control at 100 ppm with Ctenocephalides felis was determined as 90%.

Source of the values: US11926623B2, “Heterocycle derivatives as pesticides” (Bayer Aktiengesellschaft, priority 2018, dated 2024).
